Test systems include Klebsiella pneumoniae; Acinetobacter baumannii; Staphylococcus aureus.
What all share (experiment): ≥ marks a high value that may be exact or a test limit, other limits are often not marked, values filed in µg/mL are converted to µM
The subject of assay [1] is Staphylococcus aureus ATCC 6538.
Assay [2] concerns Salmonella enterica subsp. enterica serovar Typhimurium ATCC 14028.
Assay [3] relates to Escherichia coli ATCC 25922.
Assay [4] deals with Pseudomonas aeruginosa ATCC 9027.
The test system of assay [5] is Bacillus subtilis ATCC 23857.
Assay [6] relates to Klebsiella pneumoniae ATCC 700603.
Assay [7] relates to Staphylococcus aureus ATCC 25923.
For assay [8], the system named is Pseudomonas aeruginosa ATCC 27853.
The subject of assay [9] is Staphylococcus epidermidis ATCC 12228.
Assay [10] deals with Acinetobacter baumannii ATCC 19606.
Assay [11] deals with Enterococcus faecalis ATCC 29212.
Assay [12] relates to Candida albicans ATCC 90028.

≈ marks a conversion by molar mass, not a printed value. Bounds are passed on as bounds.

Regarding `CC(C)C[C@H](NC(=O)CNC(=O)[C@@H](NC(=O)[C@@H]1CCCN1C(=O)[C@H](CC(C)C)NC(=O)CNC(=O)[C@H](CC(N)=O)NC(=O)[C@H](CC(N)=O)NC(=O)[C@H](Cc1ccccc1)NC(=O)[C@@H](NC(=O)[C@H](CCCN=C(N)N)NC(=O)[C@H](CS)NC(=O)[C@H](CCCN=C(N)N)NC(=O)[C@H](Cc1cnc[nH]1)NC(=O)[C@H](CCCCN)NC(=O)[C@H](CCCCN)NC(=O)[C@H](CCCN=C(N)N)NC(=O)[C@@H](N)CCCCN)C(C)C)[C@@H](C)O)C(=O)N[C@@H](Cc1ccc(O)cc1)C(=O)N[C@@H](CCCN=C(N)N)C(=O)N[C@@H](Cc1c[nH]c2ccccc12)C(=O)N[C@@H](CS)C(N)=O` [KRKKHRCRVFNNGLPTGLYRWC], in assay [1], the MIC (as a rule, the lowest concentration that inhibits growth of the organism) was determined as 4.1 µM (≈ 11.2 µg/mL).
`CC[C@H](C)[C@H](NC(=O)[C@H](Cc1ccc(O)cc1)NC(=O)[C@@H](NC(=O)[C@H](CCCN=C(N)N)NC(=O)[C@H](CC(N)=O)NC(=O)[C@H](CC(N)=O)NC(=O)CN)C(C)C)C(=O)N1CCC[C@H]1C(=O)N[C@@H](CCC(N)=O)C(=O)N1CCC[C@H]1C(=O)N[C@@H](CCCN=C(N)N)C(=O)N1CCC[C@H]1C(=O)N[C@@H](Cc1cnc[nH]1)C(=O)N1CCC[C@H]1C(=O)N[C@@H](CCCN=C(N)N)C(=O)N[C@@H](CC(C)C)C(=O)O` [GNNRVYIPQPRPHPRL]: the MIC (in assay [2]; in assay [3]; in the assay on Klebsiella pneumoniae) was over 128 µM throughout.
Turning to `CC(C)C[C@H](NC(=O)[C@H](C)NC(=O)[C@H](CCCCN)NC(=O)[C@H](CCCCN)NC(=O)[C@H](C)NC(=O)[C@H](CC(C)C)NC(=O)[C@H](CCCCN)NC(=O)[C@H](CCCCN)NC(=O)[C@H](CC(C)C)NC(=O)[C@H](CCCCN)NC(=O)[C@H](CCCCN)NC(=O)[C@H](C)NC(=O)[C@H](CC(C)C)NC(=O)[C@H](CCCCN)NC(=O)[C@H](CCCCN)NC(=O)[C@H](CC(C)C)NC(=O)[C@H](C)NC(=O)[C@H](CCCCN)NC(=O)[C@H](CC(C)C)NC(=O)[C@H](C)NC(=O)[C@H](CC(C)C)NC(=O)[C@H](C)NC(=O)[C@@H](N)Cc1ccccc1)C(N)=O` [FALALKALKKLAKKLKKLAKKAL], the minimum inhibitory concentration (MIC) stood at 3.94 µM (≈ 10 µg/mL) in assay [1] and 1.97 µM (≈ 5 µg/mL) in assay [4].
As for `CC[C@H](C)[C@H](NC(=O)CN)C(=O)N[C@H](C(=O)N[C@@H](CCCCN)C(=O)NCC(=O)N[C@H](C(=O)N[C@H](C(=O)N[C@@H](CCCCN)C(=O)N[C@H](C(=O)N[C@H](C(=O)N[C@@H](CCCCN)C(=O)N[C@@H](C)C(N)=O)[C@@H](C)CC)[C@@H](C)CC)[C@@H](C)CC)[C@@H](C)CC)[C@@H](C)CC` [GIIKGIIKIIKA], the minimum inhibitory concentration (MIC) in [3] was found to be 128 µM (≈ 162 µg/mL); in assay [5], 4 µM (≈ 5.06 µg/mL).
`CC[C@H](C)[C@H](NC(=O)[C@H](CCCCN)NC(=O)[C@H](CCCCN)NC(=O)[C@H](C)NC(=O)[C@@H](NC(=O)[C@H](C)NC(=O)[C@H](CC(C)C)NC(=O)[C@H](CC(C)C)NC(=O)[C@H](C)NC(=O)[C@H](CCCCN)NC(=O)[C@H](CC(C)C)NC(=O)[C@H](CC(N)=O)NC(=O)[C@H](C)N)C(C)C)C(=O)N[C@@H](CC(C)C)C(N)=O` [ANLKALLAVAKKIL]: the minimal inhibitory concentration (MIC) was 16 µM (≈ 23.4 µg/mL) in [6]; 16 µM (≈ 23.4 µg/mL) in [4]; 32 µM (≈ 46.9 µg/mL) in assay [7]; 4 µM (≈ 5.86 µg/mL) in assay [3]; 4 µM (≈ 5.86 µg/mL) in [5].
For `CC(C)C[C@H](NC(=O)[C@H](C)NC(=O)[C@H](CC(C)C)NC(=O)[C@H](C)NC(=O)[C@H](CCCCN)NC(=O)[C@H](CCCCN)NC(=O)[C@H](C)NC(=O)[C@H](CC(C)C)NC(=O)[C@H](CCCCN)NC(=O)[C@H](C)NC(=O)[C@H](CC(C)C)NC(=O)[C@H](CCCCN)NC(=O)[C@H](CCCCN)NC(=O)[C@H](C)NC(=O)[C@@H](N)Cc1ccccc1)C(N)=O` [FAKKLAKLAKKALAL], the values for the minimal inhibitory concentration (MIC) in assay [1] and in [4] were 62 µM (≈ 99.9 µg/mL) and 15.5 µM (≈ 25 µg/mL), respectively.
Take `CC[C@H](C)[C@H](NC(=O)[C@H](CCCCN)NC(=O)[C@H](CCCCN)NC(=O)[C@H](C)NC(=O)[C@@H](NC(=O)[C@H](C)NC(=O)[C@H](C)NC(=O)[C@H](CC(C)C)NC(=O)[C@H](CCCCN)NC(=O)[C@H](CCCCN)NC(=O)[C@H](CC(C)C)NC(=O)[C@H](CC(N)=O)NC(=O)[C@@H](N)CC(C)C)C(C)C)C(=O)N[C@@H](CC(C)C)C(N)=O` [LNLKKLAAVAKKIL]: the minimal inhibitory concentration (MIC) was determined as 32 µM (≈ 48.7 µg/mL) in assay [6]; 4 µM (≈ 6.09 µg/mL) in assay [4]; 32 µM (≈ 48.7 µg/mL) in assay [7]; 8 µM (≈ 12.2 µg/mL) in [3]; 4 µM (≈ 6.09 µg/mL) in assay [5].
As to `CC[C@H](C)[C@H](NC(=O)[C@@H](NC(=O)[C@H](CCCCN)NC(=O)[C@H](CCCCN)NC(=O)[C@H](CC(C)C)NC(=O)CN)C(C)C)C(=O)N[C@@H](CCCCN)C(=O)N[C@@H](CC(C)C)C(=O)N[C@@H](CC(C)C)C(=O)N[C@@H](CCCN=C(N)N)C(=O)N1CCC[C@H]1C(=O)N[C@@H](CC(C)C)C(=O)N[C@@H](CC(C)C)C(=O)O` [GLKKVIKLLRPLL], the MIC is over 64 µM in assay [6]; at least 32 µM against Acinetobacter baumannii; 16 µM (≈ 23.9 µg/mL) in assay [4]; 32 µM (≈ 47.7 µg/mL) in [7]; over 64 µM in assay [3].
For `CC[C@H](C)[C@H](NC(=O)[C@H](CCCN=C(N)N)NC(=O)[C@H](CCCN=C(N)N)NC(=O)[C@H](Cc1ccccc1)NC(=O)[C@H](Cc1ccccc1)NC(=O)CN)C(=O)N[C@@H](CCCCN)C(=O)N[C@H](C(=O)N[C@@H](Cc1ccccc1)C(=O)N[C@@H](Cc1ccccc1)C(N)=O)[C@@H](C)O` [GFFRRIKTFF], the MIC is 32 µM (≈ 42.2 µg/mL) in assay [6]; 8 µM (≈ 10.5 µg/mL) in assay [8]; 64 µM (≈ 84.3 µg/mL) in assay [9]; 64 µM (≈ 84.3 µg/mL) in [10]; 16 µM (≈ 21.1 µg/mL) in assay [7]; 32 µM (≈ 42.2 µg/mL) in assay [3]. Moreover, the MIC in [5] worked out at 16 µM (≈ 21.1 µg/mL); in [11] it was 64 µM (≈ 84.3 µg/mL).
For the compound `CC[C@H](C)[C@H](NC(=O)CN)C(=O)N[C@@H](CCCN=C(N)N)C(=O)N[C@@H](Cc1c[nH]c2ccccc12)C(=O)N[C@@H](CCCCN)C(=O)N[C@@H](Cc1ccccc1)C(=O)N[C@@H](Cc1c[nH]c2ccccc12)C(=O)N[C@@H](CCCCN)C(=O)N[C@@H](Cc1ccccc1)C(=O)N[C@H](C(N)=O)[C@@H](C)O` [GIRWKFWKFT], the minimal inhibitory concentration (MIC) amounted to 64 µM (≈ 87.5 µg/mL) in [6]; 16 µM (≈ 21.9 µg/mL) in [8]; 128 µM (≈ 175 µg/mL) in assay [9]; 128 µM (≈ 175 µg/mL) in [10]; 32 µM (≈ 43.8 µg/mL) in [7]; 32 µM (≈ 43.8 µg/mL) in [3]. Moreover, the MIC was at least 64 µM in assay [5] and 128 µM (≈ 175 µg/mL) in assay [11].
For the compound `CC[C@H](C)[C@H](NC(=O)[C@H](CCCCN)NC(=O)[C@H](Cc1ccccc1)NC(=O)[C@H](C)NC(=O)[C@H](CCCCN)NC(=O)CNC(=O)[C@H](CC(C)C)NC(=O)[C@H](CC(C)C)NC(=O)[C@H](CO)NC(=O)CNC(=O)[C@H](CC(C)C)NC(=O)CN)C(=O)NCC(=O)N[C@@H](CC(C)C)C(=O)N[C@@H](CCCCN)C(=O)N[C@H](C(=O)N[C@H](C(=O)NCC(=O)N[C@@H](CCCCN)C(=O)N[C@@H](CCSC)C(=O)N[C@@H](CCSC)C(=O)NCC(=O)NCC(=O)N[C@@H](C)C(=O)N1CCC[C@H]1C(=O)N[C@@H](CCCNC(=N)N)C(=O)N[C@@H](CCC(=O)O)C(=O)N[C@@H](CCC(N)=O)C(=O)O)C(C)C)[C@@H](C)O` [GLGSLLGKAFKIGLKTVGKMMGGAPREQ], the MIC came out at 25 µM (≈ 71.1 µg/mL) in assay [12]; 5.66 µM (≈ 16.1 µg/mL) in the assay with Staphylococcus aureus; 5.66 µM (≈ 16.1 µg/mL) against Acinetobacter baumannii; 5 µM (≈ 14.2 µg/mL) in [7]; 5 µM (≈ 14.2 µg/mL) in assay [3].
On to `CC[C@H](C)[C@H](NC(=O)[C@H](CCCCN)NC(=O)[C@H](CCCCN)NC(=O)[C@H](C)NC(=O)[C@H](CC(C)C)NC(=O)[C@H](CCCCN)NC(=O)[C@H](C)NC(=O)[C@H](CC(C)C)NC(=O)[C@H](CC(C)C)NC(=O)[C@H](CCCCN)NC(=O)[C@H](C)NC(=O)[C@@H](N)Cc1ccccc1)C(=O)N[C@@H](CC(C)C)C(N)=O` [FAKLLAKLAKKIL], for which the MIC in assay [1] stood at 6.86 µM (≈ 9.99 µg/mL); in assay [4], 68.6 µM (≈ 99.9 µg/mL).
`CC(C)C[C@H](NC(=O)[C@H](C)NC(=O)[C@H](CC(C)C)NC(=O)[C@H](CCCCN)NC(=O)[C@H](C)NC(=O)[C@H](CC(C)C)NC(=O)[C@H](CCCCN)NC(=O)[C@H](CCCCN)NC(=O)[C@H](CC(C)C)NC(=O)[C@H](CCCCN)NC(=O)[C@H](CCCCN)NC(=O)[C@H](C)NC(=O)[C@H](CC(C)C)NC(=O)[C@H](CCCCN)NC(=O)[C@H](CCCCN)NC(=O)[C@H](C)NC(=O)[C@@H](N)Cc1ccccc1)C(=O)N[C@@H](C)C(=O)N[C@@H](CCCCN)C(N)=O` [FAKKLAKKLKKLAKLALAK]: the MIC in assay [1] and in [4] was 4.74 µM (≈ 10 µg/mL) in each case.
`CC[C@H](C)[C@H](NC(=O)CNC(=O)[C@@H](N)CS)C(=O)N[C@H](C(=O)N[C@@H](C)C(=O)NCC(=O)N[C@H](C(=O)N[C@H](C(=O)N[C@H](C(=O)N[C@@H](CCCCN)C(=O)N[C@H](C(=O)N[C@@H](CCCCN)C(=O)N[C@@H](CCCCN)C(=O)N[C@@H](CS)C(N)=O)[C@@H](C)CC)[C@@H](C)CC)[C@@H](C)CC)[C@@H](C)CC)[C@@H](C)CC` [CGIIAGIIIKIKKC]: the values for the MIC in [3] and in assay [5] were over 128 µM and at least 32 µM, respectively.
